Earlier results in patent publication US11278572B2, “Reducing CXCR4 expression and/or function to enhance engraftment of hematopoietic stem cells” (THE UNITED STATES OF AMERICA, as represented by the …, priority 2014, dated 2022).

Tests used:
CXCR4 = settings: WHIM patients, small studies
HPV = settings: WHIM patients

Row | SMILES | effect on panleukopenia and WHIM syndrome (CXCR4) | effect on cutaneous and anogenital HPV disease (HPV)
1 | c1cc(CN2CCCNCCNCCCNCC2)ccc1CN1CCCNCCNCCCNCC1 [Plerixafor, plerixafor] | successful at reversing the panleukopenia and treating WHIM syndrome | 
2 | CC(C)Cn1cnc2c(N)nc3ccccc3c21 [imiquimod] |  | ineffective
